22 compounds from patent US8129417B2, “Substituted octahydrocyclopenta[C]pyrrol-4-amines as calcium channel blockers” (Abbott Laboratories, priority 2008, dated 2012) can be followed below.

pIC50: −log10 of the molar value.

human Cav2.2, sequence (Q00975 whole entry): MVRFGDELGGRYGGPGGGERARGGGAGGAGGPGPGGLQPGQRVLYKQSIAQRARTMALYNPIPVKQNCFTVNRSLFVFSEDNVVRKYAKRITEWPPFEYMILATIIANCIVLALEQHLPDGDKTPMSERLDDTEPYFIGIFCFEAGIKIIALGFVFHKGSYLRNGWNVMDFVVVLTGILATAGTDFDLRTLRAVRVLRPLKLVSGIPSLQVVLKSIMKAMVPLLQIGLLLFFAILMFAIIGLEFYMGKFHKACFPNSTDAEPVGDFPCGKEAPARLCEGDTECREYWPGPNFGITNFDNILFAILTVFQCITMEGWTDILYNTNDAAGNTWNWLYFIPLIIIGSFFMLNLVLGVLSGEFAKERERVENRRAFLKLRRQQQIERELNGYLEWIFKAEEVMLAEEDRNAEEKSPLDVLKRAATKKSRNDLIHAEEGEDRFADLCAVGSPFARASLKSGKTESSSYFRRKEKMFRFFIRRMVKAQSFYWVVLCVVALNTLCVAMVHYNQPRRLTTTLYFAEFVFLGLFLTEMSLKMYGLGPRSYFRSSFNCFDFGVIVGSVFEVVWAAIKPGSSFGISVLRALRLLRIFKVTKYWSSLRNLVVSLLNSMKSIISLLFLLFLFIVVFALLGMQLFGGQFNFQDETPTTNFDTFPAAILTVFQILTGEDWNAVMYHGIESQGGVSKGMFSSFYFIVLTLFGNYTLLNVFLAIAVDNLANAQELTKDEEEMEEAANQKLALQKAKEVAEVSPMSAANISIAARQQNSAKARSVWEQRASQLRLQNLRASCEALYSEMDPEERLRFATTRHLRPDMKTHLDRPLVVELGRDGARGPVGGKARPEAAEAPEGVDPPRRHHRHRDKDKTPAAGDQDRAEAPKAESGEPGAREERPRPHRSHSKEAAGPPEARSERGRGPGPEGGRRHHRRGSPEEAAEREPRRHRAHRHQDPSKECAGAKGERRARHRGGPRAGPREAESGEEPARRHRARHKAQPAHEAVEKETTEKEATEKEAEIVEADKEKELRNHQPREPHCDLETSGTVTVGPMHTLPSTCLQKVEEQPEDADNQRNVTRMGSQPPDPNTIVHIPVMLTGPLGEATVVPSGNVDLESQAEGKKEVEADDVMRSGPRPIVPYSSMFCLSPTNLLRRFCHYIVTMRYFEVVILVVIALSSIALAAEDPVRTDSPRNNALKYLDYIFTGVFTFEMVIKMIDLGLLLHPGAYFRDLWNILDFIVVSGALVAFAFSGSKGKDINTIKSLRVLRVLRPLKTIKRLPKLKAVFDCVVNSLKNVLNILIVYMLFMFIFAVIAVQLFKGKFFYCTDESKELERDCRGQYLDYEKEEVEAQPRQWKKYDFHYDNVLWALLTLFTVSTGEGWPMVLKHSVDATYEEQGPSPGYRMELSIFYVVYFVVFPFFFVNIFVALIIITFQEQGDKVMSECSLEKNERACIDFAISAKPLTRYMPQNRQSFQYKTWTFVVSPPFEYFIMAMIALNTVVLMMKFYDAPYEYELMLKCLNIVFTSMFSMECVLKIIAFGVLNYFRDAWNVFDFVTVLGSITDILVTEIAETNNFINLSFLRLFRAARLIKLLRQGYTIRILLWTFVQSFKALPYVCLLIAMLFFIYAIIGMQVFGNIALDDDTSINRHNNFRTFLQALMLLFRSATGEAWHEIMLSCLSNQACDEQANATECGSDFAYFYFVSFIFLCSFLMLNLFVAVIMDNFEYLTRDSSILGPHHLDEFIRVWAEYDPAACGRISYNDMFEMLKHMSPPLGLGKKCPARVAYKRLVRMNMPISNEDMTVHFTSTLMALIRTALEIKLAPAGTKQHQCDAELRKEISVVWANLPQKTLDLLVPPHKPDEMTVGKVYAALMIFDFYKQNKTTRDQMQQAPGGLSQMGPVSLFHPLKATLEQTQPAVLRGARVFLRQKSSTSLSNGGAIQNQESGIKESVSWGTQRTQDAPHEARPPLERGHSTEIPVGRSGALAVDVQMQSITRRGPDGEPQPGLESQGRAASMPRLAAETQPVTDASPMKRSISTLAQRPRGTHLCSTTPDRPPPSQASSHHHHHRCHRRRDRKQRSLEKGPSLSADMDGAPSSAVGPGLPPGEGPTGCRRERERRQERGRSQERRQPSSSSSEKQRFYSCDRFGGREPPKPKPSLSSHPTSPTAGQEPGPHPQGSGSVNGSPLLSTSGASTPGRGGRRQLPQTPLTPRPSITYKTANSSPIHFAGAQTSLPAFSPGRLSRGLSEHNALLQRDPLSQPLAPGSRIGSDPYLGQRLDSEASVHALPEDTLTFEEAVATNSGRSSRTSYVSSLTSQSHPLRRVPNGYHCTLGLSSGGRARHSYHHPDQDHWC
human Cav2.2, sequence (P54289 25-946 partner limits assumed): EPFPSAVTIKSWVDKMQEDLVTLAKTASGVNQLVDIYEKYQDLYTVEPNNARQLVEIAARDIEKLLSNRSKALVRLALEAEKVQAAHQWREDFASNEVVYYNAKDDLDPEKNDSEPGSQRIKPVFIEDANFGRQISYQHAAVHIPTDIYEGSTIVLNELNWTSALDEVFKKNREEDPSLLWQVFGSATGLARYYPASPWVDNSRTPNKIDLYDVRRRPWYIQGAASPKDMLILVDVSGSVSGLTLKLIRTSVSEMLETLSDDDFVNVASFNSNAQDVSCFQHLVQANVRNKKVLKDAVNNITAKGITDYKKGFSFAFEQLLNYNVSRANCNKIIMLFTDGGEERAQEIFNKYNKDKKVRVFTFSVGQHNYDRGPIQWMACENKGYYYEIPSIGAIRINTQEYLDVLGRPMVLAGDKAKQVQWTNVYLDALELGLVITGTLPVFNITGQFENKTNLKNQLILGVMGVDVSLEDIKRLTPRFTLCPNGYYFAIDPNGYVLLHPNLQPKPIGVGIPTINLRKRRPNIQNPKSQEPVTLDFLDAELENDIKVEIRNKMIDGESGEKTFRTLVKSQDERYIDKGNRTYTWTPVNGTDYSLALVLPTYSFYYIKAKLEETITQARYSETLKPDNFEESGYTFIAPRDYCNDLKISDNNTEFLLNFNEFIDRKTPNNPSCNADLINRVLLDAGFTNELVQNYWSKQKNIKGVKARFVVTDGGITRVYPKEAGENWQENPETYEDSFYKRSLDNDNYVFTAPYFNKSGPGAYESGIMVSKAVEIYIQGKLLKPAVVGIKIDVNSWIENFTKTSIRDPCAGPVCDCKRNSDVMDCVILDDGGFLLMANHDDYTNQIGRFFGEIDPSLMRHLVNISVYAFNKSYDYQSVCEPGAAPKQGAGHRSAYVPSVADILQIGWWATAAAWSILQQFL
human Cav2.2, sequence (P54289 947-1103 partner limits assumed): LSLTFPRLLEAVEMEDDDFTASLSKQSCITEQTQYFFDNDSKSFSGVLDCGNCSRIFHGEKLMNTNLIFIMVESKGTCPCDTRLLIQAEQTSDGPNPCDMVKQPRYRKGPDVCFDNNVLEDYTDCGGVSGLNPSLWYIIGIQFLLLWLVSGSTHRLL
human Cav2.2, sequence (P54284 whole entry partner): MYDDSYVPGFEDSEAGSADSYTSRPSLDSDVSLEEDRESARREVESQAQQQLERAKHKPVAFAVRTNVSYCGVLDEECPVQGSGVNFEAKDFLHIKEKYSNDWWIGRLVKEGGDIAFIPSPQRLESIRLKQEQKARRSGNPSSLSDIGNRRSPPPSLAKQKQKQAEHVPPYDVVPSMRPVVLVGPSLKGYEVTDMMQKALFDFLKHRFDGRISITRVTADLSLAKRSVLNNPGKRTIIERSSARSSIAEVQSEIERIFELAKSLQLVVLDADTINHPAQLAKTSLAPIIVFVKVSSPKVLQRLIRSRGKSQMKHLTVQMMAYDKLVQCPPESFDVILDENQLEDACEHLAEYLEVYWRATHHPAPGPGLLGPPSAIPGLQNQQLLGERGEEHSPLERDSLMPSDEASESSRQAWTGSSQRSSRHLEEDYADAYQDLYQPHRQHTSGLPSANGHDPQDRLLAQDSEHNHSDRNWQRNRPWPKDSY

One assay addresses human Cav2.2 (Homo sapiens, UniProt Q00975). Briefly: Assessment of calcium channel activity using FLIPR (Ca2+ influx in IMR32 cells). It counts as cell-based. The following applies: 3 minute pre-incubation with compound (*), 2 μM nifedipine, depolarized with 80 mM KCl. In short, it runs like this: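 IMR32 neuroblastoma cells seeded at 1-1.2×10^5 cells/well and grown 48 h at 37 °C before FLIPR Ca2+ influx read. Percent inhibition at each concentration vs no-inhibitor activity; IC50 by non-linear sigmoidal dose-response fit.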
Broadly, the pIC50 is the IC50 on a negative log10 scale, so that one unit is a factor of ten. For `CC(C)C(C(=O)N[C@H]1CC[C@@H]2CN(CCCc3cccc(F)c3)C[C@@H]21)c1ccccc1` (stereo partly drawn) [Example 112, N-{(3aR,4S,6aS)-2-[3-(3-fluorophenyl)propyl]octahydrocyclopenta[c]pyrrol-4-yl}-3-methyl-2-phenylbutanamide], the pIC50 is 5.55.

Regarding `Cc1ccccc1CCCN1C[C@H]2CC[C@H](NC(=O)C(c3ccccc3)C(C)C)[C@H]2C1` (stereo partly drawn) [Example 108, 3-methyl-N-{(3aR,4S,6aS)-2-[3-(2-methylphenyl)propyl]octahydrocyclopenta[c]pyrrol-4-yl}-2-phenylbutanamide], the negative-log IC50 (pIC50) is 4.95.

Regarding `CC(C)C(C(=O)N[C@H]1CC[C@@H]2CN(CCCCc3ccccc3)C[C@@H]21)c1ccccc1` (stereo partly drawn) [Example 113, 3-methyl-2-phenyl-N-[(3aR,4S,6aS)-2-(4-phenylbutyl)octahydrocyclopenta[c]pyrrol-4-yl]butanamide], the negative-log IC50 (pIC50) is 5.51.

On to `O=C(N[C@@H]1CC[C@H]2CN(Cc3ccccc3)C[C@H]21)C1(c2ccccc2)CCCC1` (relative stereo) [Example 2, N-[(3aS*,4R*,6aR*)-2-benzyloctahydrocyclopenta[c]pyrrol-4-yl]-1-phenylcyclopentanecarboxamide], for which the pIC50 is 5.38.

Staying with this assay, now noted: 60 minute pre-incubation with compound, 2 μM nifedipine, depolarized with 80 mM KCl.
On to `CN[C@@H](CC(C)C)C(=O)N[C@@H]1CC[C@@H]2CN(Cc3ccccc3)C[C@@H]21` [Example 364, N^1-[(3aR,4R,6aS)-2-benzyloctahydrocyclopenta[c]pyrrol-4-yl]-N^2-methyl-L-leucinamide], for which the pIC50 was 5.09.

Turning to `O=C(N[C@H]1CC[C@@H]2CN(Cc3ccccc3)C[C@@H]21)C(c1ccc(F)cc1)c1ccc(F)cc1` [Example 228, N-[(3aR,4S,6aS)-2-benzyloctahydrocyclopenta[c]pyrrol-4-yl]-2,2-bis(4-fluorophenyl)acetamide], the pIC50 was 5.68.

As to `CCC[C@H](NC(C)C)C(=O)N[C@@H]1CC[C@H]2CN(S(=O)(=O)c3ccc(C(F)(F)F)cc3)C[C@H]21` [Example 482, N^2-isopropyl-N^1-((3aS,4R,6aR)-2-{[4-(trifluoromethyl)phenyl]sulfonyl}octahydrocyclopenta[c]pyrrol-4-yl)-L-norvalinamide], the negative logarithm of the IC50 (pIC50) was 5.71.

Regarding `CCN[C@H]1CC[C@@H]2CN(S(=O)(=O)c3ccc(C(F)(F)F)cc3)C[C@@H]21` [Example 288, (3aR,4S,6aS)—N-ethyl-2-{[4-(trifluoromethyl)phenyl]sulfonyl}octahydrocyclopenta[c]pyrrol-4-amine], the pIC50 was 4.98.

On to `CC(C)(C)C[C@H](NC(=O)OC(C)(C)C)C(=O)N[C@H]1CC[C@@H]2CN(c3cccc(C(F)(F)F)n3)C[C@@H]21` [Example 264, tert-butyl(S)-4,4-dimethyl-1-oxo-1-((3aR,4S,6aS)-2-(6-(trifluoromethyl)pyridin-2-yl)octahydrocyclopenta[c]pyrrol-4-ylamino)pentan-2-ylcarbamate], for which the negative logarithm of the IC50 (pIC50) was 6.55.

Turning to `CCC[C@H](NC)C(=O)N[C@H]1CC[C@H]2CN(S(=O)(=O)c3ccc(C(F)(F)F)cc3)C[C@H]21` [Example 456, N^2-methyl-N^1-((3aS,4S,6aR)-2-{[4-(trifluoromethyl)phenyl]sulfonyl}octahydrocyclopenta[c]pyrrol-4-yl)-L-norvalinamide], the pIC50 was 5.27.

Consider `CC(C)C[C@@H](C(=O)N[C@H]1CC[C@@H]2CN(Cc3ccc(F)cc3)C[C@@H]21)N(C)C(=O)OC(C)(C)C` [Example 309, tert-butyl(S)-1-((3aR,4S,6aS)-2-(4-fluorobenzyl)octahydrocyclopenta[c]pyrrol-4-ylamino)-4-methyl-1-oxopentan-2-yl(methyl)carbamate], for which the negative-log IC50 (pIC50) was 5.76.

On to `CC(C)(C)C[C@H](NC(=O)OC(C)(C)C)C(=O)N[C@H]1CC[C@@H]2CN(S(=O)(=O)c3cccc(C(F)(F)F)c3)C[C@@H]21` [Example 276, tert-butyl(S)-4,4-dimethyl-1-oxo-1-((3aR,4S,6aS)-2-(3-(trifluoromethyl)phenylsulfonyl)octahydrocyclopenta[c]pyrrol-4-ylamino)pentan-2-ylcarbamate], for which the pIC50 is 6.42.

As to `O=C(N[C@H]1CC[C@H]2CN(Cc3ccccc3F)C[C@H]21)C(C1CCCCC1)C1CCCCC1` [Example 55, 2,2-dicyclohexyl-N-[(3aS,4S,6aR)-2-(2-fluorobenzyl)octahydrocyclopenta[c]pyrrol-4-yl]acetamide], the pIC50 is 6.10.

As for `O=C(N[C@H]1CC[C@H]2CN(S(=O)(=O)CCc3ccccc3)C[C@H]21)C(C1CCCCC1)C1CCCCC1` [Example 206, 2,2-dicyclohexyl-N-{(3aS,4S,6aR)-2-[(2-phenylethyl)sulfonyl]octahydrocyclopenta[c]pyrrol-4-yl}acetamide], the pIC50 is below 4.00.

In the case of `CCCN[C@@H](CC(C)(C)C)C(=O)N[C@H]1CC[C@@H]2CN(S(=O)(=O)c3ccc(C(F)(F)F)cc3)C[C@@H]21` [Example 470, 4-methyl-N^2-propyl-N^1-((3aR,4S,6aS)-2-{[4-(trifluoromethyl)phenyl]sulfonyl}octahydrocyclopenta[c]pyrrol-4-yl)-L-leucinamide], the negative logarithm of the IC50 (pIC50) is 5.99.

With `CCC[C@H](NC)C(=O)N[C@H]1CC[C@@H]2CN(S(=O)(=O)c3cc(C(F)(F)F)ccc3Cl)C[C@@H]21` [Example 553, N^1-((3aR,4S,6aS)-2-{[2-chloro-5-(trifluoromethyl)phenyl]sulfonyl}octahydrocyclopenta[c]pyrrol-4-yl)-N^2-methyl-L-norvalinamide], the pIC50 was 5.71.

For `CC(C)C(C(=O)N[C@H]1CC[C@H]2CN(Cc3cccc(C(F)(F)F)c3)C[C@H]21)c1ccccc1` (relative stereo) [Example 122, 3-methyl-2-phenyl-N-{(3aS*,4S*,6aR*)-2-[3-(trifluoromethyl)benzyl]octahydrocyclopenta[c]pyrrol-4-yl}butanamide], the pIC50 is 6.22.

In the case of `CCN[C@@H](CC(C)C)C(=O)N[C@H]1CC[C@@H]2CN(Cc3cccc(C(F)(F)F)c3)C[C@@H]21` [Example 366, N^2-ethyl-N^1-{(3aR,4S,6aS)-2-[3-(trifluoromethyl)benzyl]octahydrocyclopenta[c]pyrrol-4-yl}-L-leucinamide], the negative logarithm of the IC50 (pIC50) was 5.28.

Regarding `CN[C@@H](CC(C)(C)C)C(=O)N[C@H]1CC[C@@H]2CN(S(=O)(=O)c3cccc(C(F)(F)F)c3)C[C@@H]21` [Example 414, N^2,4-dimethyl-N^1-((3aR,4S,6aS)-2-{[3-(trifluoromethyl)phenyl]sulfonyl}octahydrocyclopenta[c]pyrrol-4-yl)-L-leucinamide], the pIC50 is 6.05.

With `CN[C@@H](CC(C)(C)C)C(=O)N[C@@H]1CC[C@H]2CN(Cc3ccccc3)C[C@H]21` [Example 358, N^1-[(3aS,4R,6aR)-2-benzyloctahydrocyclopenta[c]pyrrol-4-yl]-N^2,4-dimethyl-L-leucinamide], the pIC50 was 5.05.

Consider `CC(C)N[C@@H](CC(C)(C)C)C(=O)N[C@H]1CC[C@@H]2CN(c3ccc(C(F)(F)F)cn3)C[C@@H]21` [Example 490, N^2-isopropyl-4-methyl-N^1-{(3aR,4S,6aS)-2-[5-(trifluoromethyl)pyridin-2-yl]octahydrocyclopenta[c]pyrrol-4-yl}-L-leucinamide], for which the pIC50 is 5.51.

As for `CC(C)C[C@@H](C(=O)N[C@@H]1CC[C@H]2CN(C(=O)c3cccc(C(F)(F)F)c3)C[C@H]21)N1CCCC1` [Example 345, (2S)-4-methyl-2-pyrrolidin-1-yl-N-{(3aS,4R,6aR)-2-[3-(trifluoromethyl)benzoyl]octahydrocyclopenta[c]pyrrol-4-yl}pentanamide], the pIC50 is 5.36.
